Assay [1] concerns the target T1, Histone-lysine N-methyltransferase NSD2 (Homo sapiens) (UniProt O96028).
T1 sequence (whole entry): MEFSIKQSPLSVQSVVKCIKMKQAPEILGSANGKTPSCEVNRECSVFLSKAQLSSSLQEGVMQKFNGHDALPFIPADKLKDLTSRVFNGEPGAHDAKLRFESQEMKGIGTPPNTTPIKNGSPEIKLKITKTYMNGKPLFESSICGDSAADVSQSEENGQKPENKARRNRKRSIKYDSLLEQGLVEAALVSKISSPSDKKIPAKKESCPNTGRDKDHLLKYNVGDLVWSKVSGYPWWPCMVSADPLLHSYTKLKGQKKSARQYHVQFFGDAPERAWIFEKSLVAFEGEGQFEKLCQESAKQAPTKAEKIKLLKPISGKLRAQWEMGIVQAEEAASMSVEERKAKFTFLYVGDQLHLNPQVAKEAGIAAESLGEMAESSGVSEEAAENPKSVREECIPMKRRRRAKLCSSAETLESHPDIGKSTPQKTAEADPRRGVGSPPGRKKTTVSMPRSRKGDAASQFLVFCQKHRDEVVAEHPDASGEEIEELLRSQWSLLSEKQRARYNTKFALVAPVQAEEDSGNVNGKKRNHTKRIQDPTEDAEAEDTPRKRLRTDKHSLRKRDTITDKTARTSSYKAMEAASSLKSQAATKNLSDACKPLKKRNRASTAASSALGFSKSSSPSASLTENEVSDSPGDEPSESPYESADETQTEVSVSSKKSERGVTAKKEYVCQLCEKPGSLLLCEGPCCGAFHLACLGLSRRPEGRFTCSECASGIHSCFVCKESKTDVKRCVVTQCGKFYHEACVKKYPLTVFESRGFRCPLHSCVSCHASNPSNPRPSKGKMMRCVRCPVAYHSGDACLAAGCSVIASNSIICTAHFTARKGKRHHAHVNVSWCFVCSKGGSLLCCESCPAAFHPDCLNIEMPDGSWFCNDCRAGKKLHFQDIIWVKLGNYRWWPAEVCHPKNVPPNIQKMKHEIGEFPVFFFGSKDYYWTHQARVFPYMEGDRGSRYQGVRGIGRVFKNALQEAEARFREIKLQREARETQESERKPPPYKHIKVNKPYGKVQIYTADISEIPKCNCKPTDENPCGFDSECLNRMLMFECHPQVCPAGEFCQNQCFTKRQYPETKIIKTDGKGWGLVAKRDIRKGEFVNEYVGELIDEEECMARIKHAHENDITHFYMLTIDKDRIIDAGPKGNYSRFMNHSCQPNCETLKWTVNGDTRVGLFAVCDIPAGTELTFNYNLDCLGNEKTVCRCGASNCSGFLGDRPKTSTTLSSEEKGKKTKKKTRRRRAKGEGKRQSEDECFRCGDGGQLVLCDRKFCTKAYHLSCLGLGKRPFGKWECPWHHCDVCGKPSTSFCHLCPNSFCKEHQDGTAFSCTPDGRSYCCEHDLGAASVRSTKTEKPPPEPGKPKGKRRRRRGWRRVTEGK
Nature of the assay: Inhibition of NSD2 (unknown origin) at 50 uM relative to control.

The target in assay [2] is T2, Histone-lysine N-methyltransferase NSD3 (Homo sapiens, UniProt Q9BZ95).
T2 sequence (Q9BZ95 whole entry): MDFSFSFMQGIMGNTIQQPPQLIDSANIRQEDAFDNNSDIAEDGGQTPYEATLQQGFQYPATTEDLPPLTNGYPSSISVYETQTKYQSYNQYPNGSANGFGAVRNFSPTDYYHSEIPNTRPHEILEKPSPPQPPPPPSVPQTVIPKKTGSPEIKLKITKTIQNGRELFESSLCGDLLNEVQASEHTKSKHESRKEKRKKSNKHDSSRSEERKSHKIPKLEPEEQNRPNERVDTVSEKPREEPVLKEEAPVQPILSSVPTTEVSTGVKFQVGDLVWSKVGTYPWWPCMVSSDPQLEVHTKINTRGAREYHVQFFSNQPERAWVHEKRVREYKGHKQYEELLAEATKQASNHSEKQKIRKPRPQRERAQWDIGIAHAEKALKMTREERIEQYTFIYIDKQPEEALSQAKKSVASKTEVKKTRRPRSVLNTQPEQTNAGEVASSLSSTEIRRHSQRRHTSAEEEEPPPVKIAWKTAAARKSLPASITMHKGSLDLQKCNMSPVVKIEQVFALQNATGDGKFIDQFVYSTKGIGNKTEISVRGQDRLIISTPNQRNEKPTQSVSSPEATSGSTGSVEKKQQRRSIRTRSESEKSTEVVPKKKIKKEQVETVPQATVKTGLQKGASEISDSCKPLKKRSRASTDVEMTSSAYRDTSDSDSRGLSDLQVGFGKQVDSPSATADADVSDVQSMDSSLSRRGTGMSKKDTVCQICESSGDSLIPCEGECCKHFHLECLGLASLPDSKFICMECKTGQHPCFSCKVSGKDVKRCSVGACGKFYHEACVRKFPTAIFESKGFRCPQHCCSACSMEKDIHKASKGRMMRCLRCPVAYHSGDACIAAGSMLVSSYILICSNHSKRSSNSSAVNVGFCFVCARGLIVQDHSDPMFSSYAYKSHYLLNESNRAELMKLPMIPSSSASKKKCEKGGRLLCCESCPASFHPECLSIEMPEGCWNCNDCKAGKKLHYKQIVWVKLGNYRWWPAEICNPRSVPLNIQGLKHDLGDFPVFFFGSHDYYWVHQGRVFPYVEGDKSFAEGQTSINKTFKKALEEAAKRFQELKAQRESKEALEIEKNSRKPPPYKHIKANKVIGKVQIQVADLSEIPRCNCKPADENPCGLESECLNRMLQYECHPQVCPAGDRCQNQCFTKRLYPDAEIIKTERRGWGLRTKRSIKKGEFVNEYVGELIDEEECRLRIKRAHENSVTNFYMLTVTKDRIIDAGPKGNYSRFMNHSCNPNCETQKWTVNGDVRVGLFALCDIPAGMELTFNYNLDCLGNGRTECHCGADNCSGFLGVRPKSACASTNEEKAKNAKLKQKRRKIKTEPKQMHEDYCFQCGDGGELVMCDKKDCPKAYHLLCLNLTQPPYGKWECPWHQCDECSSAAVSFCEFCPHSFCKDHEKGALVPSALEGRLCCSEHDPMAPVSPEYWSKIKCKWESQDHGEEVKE
The experiment in a line: Inhibition of human recombinant NSD3 ([…] residues) expressed in Escherichia coli BL21 (DE3) incubated for 4 hrs by scintillation/filter assay.

In assay [3] the target is T3, Histone-lysine N-methyltransferase, H3 lysine-36 specific (Homo sapiens, UniProt Q96L73). Nature of the assay: Inhibition of human recombinant NSD1 ([…] residues) expressed in Escherichia coli BL21 (DE3) incubated for 4 hrs by scintillation/filter assay.
T3 sequence (Q96L73 whole entry, the tested form may be a part): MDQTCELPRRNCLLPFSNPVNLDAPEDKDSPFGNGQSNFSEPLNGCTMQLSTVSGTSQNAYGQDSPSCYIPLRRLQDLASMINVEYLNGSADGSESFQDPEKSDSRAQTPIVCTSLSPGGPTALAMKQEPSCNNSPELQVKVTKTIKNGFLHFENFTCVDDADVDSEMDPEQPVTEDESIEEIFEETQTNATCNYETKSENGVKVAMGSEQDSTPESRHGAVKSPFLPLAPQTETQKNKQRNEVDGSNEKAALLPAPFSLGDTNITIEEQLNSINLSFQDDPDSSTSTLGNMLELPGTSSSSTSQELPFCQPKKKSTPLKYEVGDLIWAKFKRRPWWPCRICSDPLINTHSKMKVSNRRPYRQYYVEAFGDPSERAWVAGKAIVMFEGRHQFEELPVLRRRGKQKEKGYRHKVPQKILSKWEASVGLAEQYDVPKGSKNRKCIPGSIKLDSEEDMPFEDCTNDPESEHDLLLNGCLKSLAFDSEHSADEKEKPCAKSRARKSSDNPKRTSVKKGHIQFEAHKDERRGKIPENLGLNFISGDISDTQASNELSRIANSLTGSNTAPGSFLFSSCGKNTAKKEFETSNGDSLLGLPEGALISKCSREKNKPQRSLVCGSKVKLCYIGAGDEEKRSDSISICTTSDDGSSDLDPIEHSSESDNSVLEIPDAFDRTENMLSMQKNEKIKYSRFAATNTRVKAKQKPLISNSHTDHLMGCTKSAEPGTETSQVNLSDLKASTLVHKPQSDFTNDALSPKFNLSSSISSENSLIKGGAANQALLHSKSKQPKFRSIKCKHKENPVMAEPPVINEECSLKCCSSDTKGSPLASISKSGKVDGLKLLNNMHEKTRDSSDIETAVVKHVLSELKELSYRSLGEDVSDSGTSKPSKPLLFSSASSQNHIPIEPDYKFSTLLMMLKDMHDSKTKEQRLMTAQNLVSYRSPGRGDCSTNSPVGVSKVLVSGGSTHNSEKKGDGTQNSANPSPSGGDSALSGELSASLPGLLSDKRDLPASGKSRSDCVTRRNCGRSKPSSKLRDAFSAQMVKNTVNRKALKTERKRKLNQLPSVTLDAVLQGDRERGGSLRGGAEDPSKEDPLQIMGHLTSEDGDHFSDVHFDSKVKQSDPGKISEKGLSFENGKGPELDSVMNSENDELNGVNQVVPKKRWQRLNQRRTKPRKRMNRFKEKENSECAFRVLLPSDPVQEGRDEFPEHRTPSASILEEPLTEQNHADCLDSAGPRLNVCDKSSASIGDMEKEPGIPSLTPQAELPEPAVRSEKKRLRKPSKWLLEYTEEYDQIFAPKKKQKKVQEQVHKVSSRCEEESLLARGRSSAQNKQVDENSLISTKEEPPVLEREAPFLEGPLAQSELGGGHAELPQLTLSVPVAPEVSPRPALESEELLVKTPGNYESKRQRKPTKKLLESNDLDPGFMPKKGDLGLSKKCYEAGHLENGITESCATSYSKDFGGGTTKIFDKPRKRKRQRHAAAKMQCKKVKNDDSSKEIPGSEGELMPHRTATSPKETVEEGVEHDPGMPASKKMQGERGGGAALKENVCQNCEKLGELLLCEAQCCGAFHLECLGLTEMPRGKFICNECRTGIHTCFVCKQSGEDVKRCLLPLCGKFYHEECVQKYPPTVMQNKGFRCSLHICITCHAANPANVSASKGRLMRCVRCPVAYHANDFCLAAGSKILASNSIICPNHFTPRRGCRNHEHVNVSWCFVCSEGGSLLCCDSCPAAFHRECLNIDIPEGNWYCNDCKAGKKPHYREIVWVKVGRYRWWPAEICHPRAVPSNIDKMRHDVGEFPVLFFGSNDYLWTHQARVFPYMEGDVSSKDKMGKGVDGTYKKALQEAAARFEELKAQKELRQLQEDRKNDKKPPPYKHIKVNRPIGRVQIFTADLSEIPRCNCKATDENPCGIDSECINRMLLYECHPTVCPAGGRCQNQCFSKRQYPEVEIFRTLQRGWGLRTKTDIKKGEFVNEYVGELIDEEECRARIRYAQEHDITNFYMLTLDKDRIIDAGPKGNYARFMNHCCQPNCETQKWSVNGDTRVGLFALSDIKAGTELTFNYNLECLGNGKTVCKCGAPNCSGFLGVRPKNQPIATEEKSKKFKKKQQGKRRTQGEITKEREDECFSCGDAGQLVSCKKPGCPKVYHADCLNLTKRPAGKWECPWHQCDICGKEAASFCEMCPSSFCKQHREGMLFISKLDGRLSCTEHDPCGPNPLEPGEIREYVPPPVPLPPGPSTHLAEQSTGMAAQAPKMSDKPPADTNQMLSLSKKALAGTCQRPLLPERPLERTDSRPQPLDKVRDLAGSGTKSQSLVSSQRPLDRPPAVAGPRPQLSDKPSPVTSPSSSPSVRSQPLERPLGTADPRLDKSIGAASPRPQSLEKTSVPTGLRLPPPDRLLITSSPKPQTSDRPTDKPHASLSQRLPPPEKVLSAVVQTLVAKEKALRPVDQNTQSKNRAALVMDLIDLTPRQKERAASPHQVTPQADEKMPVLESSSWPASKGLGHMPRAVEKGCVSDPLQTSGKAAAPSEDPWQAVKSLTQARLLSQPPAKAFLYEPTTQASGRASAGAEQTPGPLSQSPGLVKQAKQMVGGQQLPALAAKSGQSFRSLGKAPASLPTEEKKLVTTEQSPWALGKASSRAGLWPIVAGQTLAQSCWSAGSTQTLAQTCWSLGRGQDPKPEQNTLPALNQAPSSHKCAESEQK
Assay [4] in a line: Inhibition of N-terminal hexa-histidine tagged NSD3 SET domain (1066 to 1288 residues) (unknown origin) expressed in Escherichia coli incubated for 4 hrs by ITC method. Also on record: species or system Homo sapiens.
Assay [5] deals with Histone-lysine N-methyltransferase NSD2 (Homo sapiens, UniProt O96028, E1099K). Nature of the assay: Inhibition of NSD2 E1099K mutant (unknown origin).
Sequence of Histone-lysine N-methyltransferase NSD2 (Homo sapiens, UniProt O96028, E1099K) (O96028 whole entry E1099K): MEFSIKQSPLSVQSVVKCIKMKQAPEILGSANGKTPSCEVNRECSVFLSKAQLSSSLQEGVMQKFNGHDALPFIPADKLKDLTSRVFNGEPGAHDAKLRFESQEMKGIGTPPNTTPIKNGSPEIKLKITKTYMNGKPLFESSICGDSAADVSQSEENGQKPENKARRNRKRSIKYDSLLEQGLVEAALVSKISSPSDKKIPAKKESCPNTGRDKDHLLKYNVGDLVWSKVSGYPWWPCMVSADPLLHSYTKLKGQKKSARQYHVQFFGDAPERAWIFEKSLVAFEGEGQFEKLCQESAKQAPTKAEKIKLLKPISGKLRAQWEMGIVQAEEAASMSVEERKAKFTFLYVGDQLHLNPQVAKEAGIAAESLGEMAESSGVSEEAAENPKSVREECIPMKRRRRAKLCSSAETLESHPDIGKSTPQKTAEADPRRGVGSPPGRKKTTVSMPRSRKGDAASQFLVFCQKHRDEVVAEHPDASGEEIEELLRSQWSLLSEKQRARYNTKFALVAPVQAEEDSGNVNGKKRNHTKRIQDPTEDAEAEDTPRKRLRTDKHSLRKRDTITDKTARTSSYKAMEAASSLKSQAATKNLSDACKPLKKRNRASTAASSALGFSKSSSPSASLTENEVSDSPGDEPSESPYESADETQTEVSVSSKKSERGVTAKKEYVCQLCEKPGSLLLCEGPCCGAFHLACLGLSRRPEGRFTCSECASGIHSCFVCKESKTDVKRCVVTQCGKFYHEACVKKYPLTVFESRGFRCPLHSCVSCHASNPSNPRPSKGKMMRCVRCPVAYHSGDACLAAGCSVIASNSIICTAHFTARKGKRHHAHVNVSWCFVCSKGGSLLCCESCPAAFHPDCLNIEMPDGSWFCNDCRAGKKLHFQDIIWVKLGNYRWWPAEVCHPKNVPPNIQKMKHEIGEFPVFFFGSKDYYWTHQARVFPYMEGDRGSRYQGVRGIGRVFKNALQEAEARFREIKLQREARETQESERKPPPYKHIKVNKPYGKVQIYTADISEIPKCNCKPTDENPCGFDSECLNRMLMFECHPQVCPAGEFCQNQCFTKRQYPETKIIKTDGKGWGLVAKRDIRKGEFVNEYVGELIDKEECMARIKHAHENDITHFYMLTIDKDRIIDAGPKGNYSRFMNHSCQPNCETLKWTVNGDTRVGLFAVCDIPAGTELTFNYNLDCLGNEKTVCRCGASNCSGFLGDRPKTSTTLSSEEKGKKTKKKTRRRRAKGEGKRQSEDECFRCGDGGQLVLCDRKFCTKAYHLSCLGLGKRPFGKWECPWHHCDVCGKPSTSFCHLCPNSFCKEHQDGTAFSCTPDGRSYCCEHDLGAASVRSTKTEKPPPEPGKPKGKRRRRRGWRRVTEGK
For assay [6], the target named is Histone-lysine N-methyltransferase NSD2 (Homo sapiens, UniProt O96028, T1150A). Nature of the assay: Inhibition of NSD2 T1150A mutant (unknown origin).
Sequence of Histone-lysine N-methyltransferase NSD2 (Homo sapiens, UniProt O96028, T1150A) (O96028 whole entry T1150A): as the sequence (O96028 whole entry E1099K) above, with K1099E, T1150A counted along it
The subject of another assay is U2OS. Nature of the assay: Cytotoxicity against human U2OS cells assessed as cell growth inhibition. The format is functional.
Assay [7] deals with T3, Histone-lysine N-methyltransferase, H3 lysine-36 specific. The experiment in a line: Inhibition of human recombinant NSD1 incubated for 2 hrs by AlphaLISA method.
Assay [8] deals with Histone-lysine N-methyltransferase SETDB1 (Homo sapiens) (UniProt Q15047). The experiment in a line: Inhibition of SETDB1 (unknown origin) at 10 uM relative to control.
In assay [9] the target is T1, Histone-lysine N-methyltransferase NSD2 (Homo sapiens). The experiment in a line: Inhibition of NSD2 (unknown origin) at 10 uM relative to control.
Assay [10] has as its target Histone-lysine N-methyltransferase 2A (Homo sapiens) (UniProt Q03164). Nature of the assay: Inhibition of MLL1 (unknown origin) at 10 uM relative to control.
Another assay has as its system PC-3. Nature of the assay: Antiproliferative activity against human PC-3 cells assessed as cell growth inhibition incubated for 48 hrs by MTT assay. The format is functional, cell-based. Particulars: PC-3, 48 h.
For assay [11], the target named is T2, Histone-lysine N-methyltransferase NSD3. The experiment in a line: Binding affinity to human recombinant NSD3 PWWP1 domain assessed as dissociation constant.
For assay [12], the target named is T4, Histone-lysine N-methyltransferase NSD2 (Homo sapiens, UniProt O96028).
T4 sequence (O96028 whole entry): T1 sequence (whole entry)
The experiment in a line: Binding affinity to NSD2 PWWP1 domain (unknown origin) assessed as dissociation constant.

Assay [13] concerns the target von Hippel-Lindau disease tumor suppressor/Histone-lysine N-methyltransferase NSD3 (Homo sapiens) (UniProt Q9BZ95+P40337). Nature of the assay: Protac activity at VHL/NSD3 in human MOLM-13 cells assessed as induction of NSD3 degradation incubated for 48 hrs by immunoblotting analysis relative to control. The assay is classed as cell-based.
In assay [14] the target is von Hippel-Lindau disease tumor suppressor/Histone-lysine N-methyltransferase NSD3 (Homo sapiens, UniProt P40337+Q9BZ95). Nature of the assay: Protac activity at VHL/NSD3 in human MOLM-13 cells assessed as induction of NSD3 degradation incubated for 6 hrs by immunoblotting analysis. The format is cell-based.
Sequence of von Hippel-Lindau disease tumor suppressor/Histone-lysine N-methyltransferase NSD3 (P40337 whole entry, one chain of several): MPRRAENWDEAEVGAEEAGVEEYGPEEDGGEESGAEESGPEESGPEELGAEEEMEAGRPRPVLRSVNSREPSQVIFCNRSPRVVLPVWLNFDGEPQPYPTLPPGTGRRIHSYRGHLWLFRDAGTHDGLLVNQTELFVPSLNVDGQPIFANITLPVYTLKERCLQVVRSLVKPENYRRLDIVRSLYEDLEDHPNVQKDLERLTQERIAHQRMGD

SMILES strings stand for the structures.

Sequence of von Hippel-Lindau disease tumor suppressor/Histone-lysine N-methyltransferase NSD3 (Homo sapiens) (P40337 whole entry, looked up, one chain of several): as the sequence (P40337 whole entry, one chain of several) above

With `C=CC(=O)Nc1cc(NC(=O)Nc2ccc3nnsc3c2)cc(C(=O)OC)c1`, the inhibition in [1] worked out at 92%.

In the case of `COc1cc2nc(N3CCCN(C)CC3)nc(NC3CCN(Cc4ccccc4)CC3)c2cc1OC`, the IC50 in assay [2] was found to be 95000 nM; in assay [3], 112000 nM.

In turn, `CC1CN1c1cc(O)c2nc(N)sc2c1` (stereo not drawn) came in with an IC50 in assay [4] of 14300 nM.

With `O=C1C(Cl)=C(NCCN2CCOCC2)C(=O)c2ncccc21`, the values for the IC50 in assay [5] and in [6] were 110 nM and 170 nM, respectively. Also, the CC50 in the assay with U2OS was 270 nM.

Molecule `O=C(Nc1cccc([N+](=O)[O-])c1)Nc1ccc2nnsc2c1` gave an inhibition in assay [1] of 96%.

Regarding `COC[C@@]1(N)CCCN(c2cnc(-c3cc(Cl)ccc3F)cc2Cn2cnc3c(N)ncnc32)C1`, the IC50 in [7] was 248 nM.

As for `COC(=O)c1cc(NC(=O)Nc2ccc3nnsc3c2)cc(C(=O)OC)c1`, the inhibition in assay [8] came out at 85%; in assay [9] it was 97%; in assay [1], 95%; in assay [10], 79%. The IC50 in the assay with PC-3 was < 10000 nM.

Take `N#Cc1cccc(NC(=O)Nc2ccc3nnsc3c2)c1`: the inhibition in [1] turned out to be 92%.

For the molecule `COc1ccc(-c2cc(Cn3cnc4c(N)ncnc43)c(N3CCC[C@](N)(COC4CCC4)C3)cn2)cc1F`, the half-inhibitory concentration (IC50) in [7] amounted to 270 nM.

As to `Nc1ncnc2c1ncn2Cc1cc(-c2ccc(F)c(F)c2)ncc1N1CCC[C@](N)(COC2CC2)C1`, in assay [7], the IC50 was determined as 214 nM.

Turning to `O=C(CCCC[C@@H]1SC[C@@H]2NC(=O)N[C@@H]21)NCCOCCOCCOCCOCCOCCOCCOCCOCCOCCOCCOCCNC(=O)c1ccc(NC(=O)c2ccc(CN(C(=O)c3ccc4c(c3)OCC(=O)N4)C3CC3)cc2)cc1`, the Kd in [11] and in assay [12] was 46 nM throughout.

Take `Cc1cc(CNCCCC(=O)NCCCCCCCCC(=O)N[C@H](C(=O)N2C[C@H](O)C[C@H]2C(=O)N[C@@H](C)c2ccc(-c3scnc3C)cc2)C(C)(C)C)cc(C)c1-c1ncn(C)c1-c1ccnc2cc(F)ccc12`: the Kd in assay [11] was found to be 1300 nM. Besides, in [13], the Emax was 80%. Also, the EC50 in assay [14] is 4900 nM.

`CC(=O)c1ccc(-c2cc(NC(=O)Nc3ccc4nnsc4c3)cc(C(F)(F)F)c2)s1`: in assay [1], the inhibition amounted to 99%.

The record behind these values is ChEMBL document CHEMBL5360652, “Drug Discovery Targeting Nuclear Receptor Binding SET Domain Protein 2 (NSD2)” (J Med Chem, 2023).
